Experimental data published in US20220289766A1 (INFLAZOME LIMITED, priority 2019, published 2022).
Structures can show the parent of a compound that is named as a salt.

Experiments:
NLRP3 [1] = biological target: T1, NLRP3 (Homo sapiens, UniProt Q96P20); assay: THP-1 cells pyroptosis assay; assay type: cell-based; parameters: Seed THP-1 cells (25,000 cells/well) containing 1.0 μg/ml LPS in 40 μl of RPMI medium; host or cells: THP-1 cells; conditions: LPS 1 μg/ml, compound 3 hrs, nigericin 5 μM 1 hr, resazurin readout
T1 sequence (Q96P20 whole entry): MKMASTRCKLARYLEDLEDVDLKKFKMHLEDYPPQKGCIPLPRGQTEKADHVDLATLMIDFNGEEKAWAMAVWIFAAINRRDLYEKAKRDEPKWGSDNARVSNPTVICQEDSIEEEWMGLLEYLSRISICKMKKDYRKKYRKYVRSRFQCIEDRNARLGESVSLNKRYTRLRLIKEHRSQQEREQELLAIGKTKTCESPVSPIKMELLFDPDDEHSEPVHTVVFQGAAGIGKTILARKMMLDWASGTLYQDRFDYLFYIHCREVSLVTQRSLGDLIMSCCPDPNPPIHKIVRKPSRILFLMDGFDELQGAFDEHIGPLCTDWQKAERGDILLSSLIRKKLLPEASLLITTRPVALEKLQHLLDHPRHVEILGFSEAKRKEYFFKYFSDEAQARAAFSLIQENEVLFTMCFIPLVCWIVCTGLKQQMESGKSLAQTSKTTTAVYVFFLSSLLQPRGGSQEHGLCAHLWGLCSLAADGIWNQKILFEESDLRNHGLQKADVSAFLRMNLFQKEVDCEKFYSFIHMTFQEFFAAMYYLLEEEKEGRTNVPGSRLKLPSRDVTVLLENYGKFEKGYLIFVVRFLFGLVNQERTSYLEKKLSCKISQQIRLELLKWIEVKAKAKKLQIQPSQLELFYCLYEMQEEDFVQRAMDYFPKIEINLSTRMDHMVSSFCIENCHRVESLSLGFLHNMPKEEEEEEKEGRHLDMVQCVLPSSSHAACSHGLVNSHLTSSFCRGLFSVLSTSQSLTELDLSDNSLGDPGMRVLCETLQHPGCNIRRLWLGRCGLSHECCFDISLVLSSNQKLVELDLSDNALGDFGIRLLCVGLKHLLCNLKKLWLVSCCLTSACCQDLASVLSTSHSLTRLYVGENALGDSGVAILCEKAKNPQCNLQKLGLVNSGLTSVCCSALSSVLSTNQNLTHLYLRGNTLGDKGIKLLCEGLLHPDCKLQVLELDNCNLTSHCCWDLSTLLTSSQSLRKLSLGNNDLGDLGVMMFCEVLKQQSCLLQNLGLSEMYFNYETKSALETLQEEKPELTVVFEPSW
Method: THP-1 cells (ATCC #TIB-202) were grown in RPMI containing L-glutamine (Gibco #11835) supplemented with 1 mM sodium pyruvate (Sigma #S8636) and penicillin (100 units/ml)/streptomycin (0.1 mg/ml) (Sigma #P4333) in 10% Fetal Bovine Serum (FBS) (Sigma #F0804). The cells were routinely passaged and grown to confluency (˜10^6 cells/ml). On the day of the experiment, THP-1 cells were harvested and resuspended into RPMI medium (without FBS). The cells were then counted and viability ([…]) checked by Trypan blue (Sigma #T8154). Appropriate dilutions were made to give a concentration of 625,000 cells/ml. To this diluted cell solution was added LPS (Sigma #L4524) to give a 1 μg/ml Final Assay Concentration (FAC). 40 μl of the final preparation was aliquoted into each well of a 96-well plate. The plate thus prepared was used for compound screening.
The following method step-by-step assay was followed for compound screening. • 1. Seed THP-1 cells (25,000 cells/well) containing 1.0 μg/ml LPS in 40 μl of RPMI medium (without FBS) in 96-well, black walled, clear bottom cell culture plates coated with poly-D-lysine (VWR #734-0317) • 2. Add 5 μl compound (8 points half-log dilution, with 10 μM top dose) or vehicle (DMSO 0.1% FAC) to the appropriate wells • 3. Incubate for 3 hrs at 37° C., 5% CO2 • 4. Add 5 μl nigericin (Sigma #N7143) (FAC 5 μM) to all wells • 5. Incubate for 1 hr at 37° C., 5% CO2 • 6. At the end of the incubation period, spin plates at 300×g for 3 mins and remove supernatant • 7. Then add 50 μl of resazurin (Sigma #R7017) (FAC 100 μM resazurin in RPMI medium without FBS) and incubate plates for a further 1-2 hrs at 37° C. and 5% CO2 • 8. Plates were read in an Envision reader at Ex 560 nm and Em 590 nm • 9. IC50 data is fitted to a non-linear regression equation (log inhibitor vs response-variable slope 4-parameters)

NLRP3 [2] = biological target: T1, NLRP3; assay: Human whole blood IL-1β release assay; assay type: cell-based; parameters: Plate out 80 μl of whole blood containing 1 μg/ml of LPS in 96-well, clear bottom cell culture plate; from tissue; host or cells: human whole blood from healthy donors; conditions: LPS 1 μg/ml, compound 3 hrs, nigericin 10 μM 1 hr, IL-1β by AlphaLisa, read-out: HWB IC50
Method: For systemic delivery, the ability to inhibit NLRP3 when the compounds are present within the bloodstream is of great importance. For this reason, the NLRP3 inhibitory activity of a number of compounds in human whole blood was investigated in accordance with the following protocol.
Human whole blood in Li-heparin tubes was obtained from healthy donors from a volunteer donor panel. • 1. Plate out 80 μl of whole blood containing 1 μg/ml of LPS in 96-well, clear bottom cell culture plate (Corning #3585) • 2. Add 10 μl compound (8 points half-log dilution with 10 μM top dose) or vehicle (DMSO 0.1% FAC) to the appropriate wells • 3. Incubate for 3 hrs at 37° C., 5% CO2 • 4. Add 10 μl nigericin (Sigma #N7143) (10 μM FAC) to all wells • 5. Incubate for 1 hr at 37° C., 5% CO2 • 6. At the end of the incubation period, spin plates at 300×g for 5 mins to pellet cells and remove […] of supernatant and add to 96-well v-bottom plates for IL-1β analysis (note: these plates containing the supernatants can be stored at −80° C. to be analysed at a later date) • 7. IL-1β was measured according to the manufacturer protocol (Perkin Elmer-AlphaLisa IL-1 Kit AL220F-5000) • 8. IC50 data is fitted to a non-linear regression equation (log inhibitor vs response-variable slope 4-parameters)

SMILES: O=C1Nc2c(ccc3c2CCC3)-c2cc(F)nc(c2)OCCn2cc(F)c(n2)S(=O)(=O)N1 [Example 42, 16,24-difluoro-21-oxa-14λ^6-thia-11,13,18,23,27-pentaazapentacyclo-[20.3.1.1^15,18.0^2,10.0^5,9]heptacosa-1(26),2,4,9,15(27),16,22,24-octaene-12,14,14-trione]
- IC50 (NLRP3 [1]): ≤ 0.1 µM
- IC50 (NLRP3 [2]): 0.1 to 0.5 µM

SMILES: Cc1cnc2cc1-c1ccc3c(c1NC(=O)NS(=O)(=O)c1ccn(n1)C(C)(C)CO2)CCC3 [Example 33, 19,19,25-trimethyl-21-oxa-14λ^6-thia-11,13,18,23,27-pentaaza-pentacyclo-[20.3.1.1^15,18.0^2,10.0^5,9]-heptacosa-1(26),2,4,9,15(27),16,22,24-octaene-12,14,14-trione, sodium salt]
- IC50 (NLRP3 [1]): 0.5 to 1 µM
- IC50 (NLRP3 [2]): 1 to 5 µM

SMILES: O=C1Nc2c(ccc3c2CCC3)-c2ccnc(c2)OCCCCn2ccc(n2)S(=O)(=O)N1 [Example 4, 23-oxa-14λ^6-thia-11,13,18,25,29-pentaazapentacyclo-[22.3.1.1^15,18.0^2,10.0^5,9]nonacosa-1(28),2(10),3,5(9),15(29),16,24,26-octaene-12,14,14-trione]
- IC50 (NLRP3 [1]): 0.1 to 0.5 µM
- IC50 (NLRP3 [2]): 0.5 to 1 µM

SMILES: O=C1Nc2c(ccc3c2CCC3)-c2ccnc(c2)O[C@H]2COC[C@@H]2n2ccc(n2)S(=O)(=O)N1 (racemic) [Example 35, (anti)-21,24-dioxa-14λ^6-thia-11,13,18,26,30-pentaazahexacyclo-[23.3.1.1^15,18.0^2,10.0^5,9.0^19,23]-triaconta-1(28),2,4,9,15(30),16,25(29),26-octaene-12,14,14-trione]
- IC50 (NLRP3 [1]): ≤ 0.1 µM
- IC50 (NLRP3 [2]): 0.1 to 0.5 µM

SMILES: O=C1Nc2c(ccc3c2CCC3)-c2cccc(c2)OCCCCCn2ccc(n2)S(=O)(=O)N1 [Example 9, 24-oxa-14λ^6-thia-11,13,18,30-tetraazapentacyclo-[23.3.1.1^15,18.0^2,10.0^5,9]triaconta-1(28),2,4,9,15(30),16,25(29),26-octaene-12,14,14-trione]
- IC50 (NLRP3 [1]): 0.5 to 1 µM
- IC50 (NLRP3 [2]): 1 to 5 µM

SMILES: O=C1Nc2c3c(cc4c2C(CCCCCCn2ccc(n2)S(=O)(=O)N1)CC4)CCC3 (racemic) [Example 48, 5λ^6-thia-2,4,9,27-tetraazapentacyclo[14.9.1.1^6,9.0^19,26.0^21,25]heptacosa-1(25),6(27),7,19(26),20-pentaene-3,5,5-trione]
- IC50 (NLRP3 [1]): 1 to 5 µM
- IC50 (NLRP3 [2]): 5 to 10 µM

SMILES: O=C1Nc2c(ccc3c2CCC3)-c2ccnc(c2)OCCCCCn2ccc(n2)S(=O)(=O)N1 [Example 1, 24-Oxa-14λ^6-thia-11,13,18,26,30-pentaazapentacyclo-[23.3.1.1^15,18.0^2,10.0^5,9]-triaconta-1(29),2(10),3,5(9),15(30),16,25,27-octaene-12,14,14-trione]
- IC50 (NLRP3 [1]): 0.1 to 0.5 µM
- IC50 (NLRP3 [2]): 1 to 5 µM

SMILES: CC(C)c1cc(F)cc2c1NC(=O)NS(=O)(=O)c1nn(cc1F)C(C)(C)COc1cc-2ccn1 [Example 30, 4,13-difluoro-16,16-dimethyl-6-(propan-2-yl)-18-oxa-11λ^6-thia-8,10,15,20,24-pentaazatetracyclo-[17.3.1.1^12,15.0^2,7]tetracosa-1(22),2(7),3,5,12(24),13,19 (23),20-octaene-9,11,11-trione, sodium salt]
- IC50 (NLRP3 [1]): ≤ 0.1 µM
- IC50 (NLRP3 [2]): 0.1 to 0.5 µM

SMILES: O=C1Nc2c3c(cc4c2C(CCCCCn2ccc(n2)S(=O)(=O)N1)CC4)CCC3 (racemic) [Example 50, 5λ^6-thia-2,4,9,26-tetraazapentacyclo[13.9.1.1^6,9.0^18,25.0^20,24]hexacosa-1(24),6(26),7,18(25),19-pentaene-3,5,5-trione]
- IC50 (NLRP3 [1]): 0.1 to 0.5 µM
- IC50 (NLRP3 [2]): 1 to 5 µM

SMILES: CC1(C)COCCOc2cc(ccn2)-c2ccc3c(c2NC(=O)NS(=O)(=O)c2ccn1n2)CCC3 [Example 12, 19,19-dimethyl-21,24-dioxa-14λ^6-thia-11,13,18,26,30-pentaazapentacyclo-[23.3.1.1^15,18.0^2,10.0^5,9]triaconta-1(28),2,4,9,15(30),16,25(29),26-octaene-12,14,14-trione]
- IC50 (NLRP3 [1]): 0.1 to 0.5 µM
- IC50 (NLRP3 [2]): 0.5 to 1 µM

SMILES: Cc1cc2c(c3c1-c1ccnc(c1)OCCCCCn1ccc(n1)S(=O)(=O)NC(=O)N3)CCC2 [Example 2, 3-methyl-24-oxa-14λ^6-thia-11,13,18,26,30-pentaaza-pentacyclo[23.3.1.1^15,18.0^2,10.0^5,9]-triaconta-1(29),2(10),3,5(9),15(30), 16,25,27-octaene-12,14,14-trione]
- IC50 (NLRP3 [1]): ≤ 0.1 µM
- IC50 (NLRP3 [2]): 0.5 to 1 µM

SMILES: CC(C)c1cc(F)cc2c1NC(=O)NS(=O)(=O)c1ccn(n1)C(C)(C)COc1cc-2ccn1 [Example 43, 4-fluoro-16,16-dimethyl-6-(propan-2-yl)-18-oxa-11λ^6-thia-8,10,15,20,24-pentaazatetracyclo-[17.3.1.1^12,15.0^2,7]tetracosa-1(22),2(7),3,5,12(24),13,19(23),20-octaene-9,11,11-trione]
- IC50 (NLRP3 [1]): 0.1 to 0.5 µM
- IC50 (NLRP3 [2]): 0.1 to 0.5 µM

SMILES: Cc1cc2c(c3c1-c1ccnc(c1)OCC(C)(C)n1cc(F)c(n1)S(=O)(=O)NC(=O)N3)CCC2 [Example 26]
- IC50 (NLRP3 [1]): ≤ 0.1 µM
- IC50 (NLRP3 [2]): 0.1 to 0.5 µM

SMILES: CC(C)c1cnn2c1NC(=O)NS(=O)(=O)c1nn(cc1F)C(C)(C)COc1cc-2ccn1 [Example 47, 12-fluoro-15,15-dimethyl-5-(propan-2-yl)-17-oxa-10λ^6-thia-2,3,7,9,14,19,23-heptaazatetracyclo-[16.3.1.1^11,14.0^2,6]tricosa-1(21),3,5,11(23),12,18(22),19-heptaene-8,10,10-trione]
- IC50 (NLRP3 [1]): 0.5 to 1 µM
- IC50 (NLRP3 [2]): 0.5 to 1 µM

SMILES: O=C1Nc2c(ccc3c2CCC3)-c2ccnc(c2)OCCCCCS(=O)(=O)N1 [Example 19, 20-oxa-14λ^6-thia-11,13,22-triazatetracyclo-[19.3.1.0^2,10.0^5,9]triaconta-1(24),2,4,9,21(25),22-hexaene-12,14,14-trione]
- IC50 (NLRP3 [1]): 0.5 to 1 µM
- IC50 (NLRP3 [2]): 0.5 to 1 µM
